≈ marks a conversion by molar mass, not a printed value.

The subject of test [1] is A549. The experiment in a line: Antiproliferative activity against human A549 cells assessed as inhibition of cell growth incubated for 72 hrs by SRB assay. The format is functional, cell-based. To be noted: A549, 72 h.
Test [2] relates to MCF7. The experiment in a line: Antiproliferative activity against human MCF7 cells assessed as inhibition of cell growth incubated for 72 hrs by SRB assay. The format is functional, cell-based. To be noted: MCF7, 72 h.
For test [3], the system named is HCT-116. The experiment in a line: Cytotoxicity against human HCT-116 cells assessed as reduction in cell viability at 20 uM measured after 48 hrs by MTS assay relative to control. In kind it is functional.
Test [4] has as its system AGS. The experiment in a line: Antiproliferative activity against human AGS cells assessed as inhibition of cell growth incubated for 24 hrs by MTT assay. The format is functional, cell-based. (In general: Tetrazolium dyes change colour on reduction, which living cells bring about.)
Test [5] relates to L1210. The experiment in a line: Antiproliferative activity against mouse L1210 cells assessed as inhibition of cell growth incubated for 24 hrs by MTT assay. In kind it is functional, cell-based. To be noted: L1210, 24 h.
Test [6] in a line: Antiproliferative activity against human BC cells assessed as inhibition of cell growth incubated for 24 hrs by MTT assay. In kind it is functional, cell-based.
Test [7] has as its system SMMC-7721. The experiment in a line: Antiproliferative activity against human SMMC-7721 cells assessed as inhibition of cell growth incubated for 48 hrs by MTS assay. In kind it is functional, cell-based. The settings on record: SMMC-7721, 48 h.
In test [8] the test system is A549. The experiment in a line: Antiproliferative activity against human A549 cells assessed as inhibition of cell growth incubated for 48 hrs by MTS assay. The format is functional, cell-based. The settings on record: A549, 48 h.
In test [9] the test system is HL-60. The experiment in a line: Antiproliferative activity against human HL-60 cells assessed as inhibition of cell growth incubated for 48 hrs by MTS assay. To be noted: HL-60, 48 h. The format is functional, cell-based.
Test [10] concerns MCF7. The experiment in a line: Antiproliferative activity against human MCF7 cells assessed as inhibition of cell growth incubated for 48 hrs by MTS assay. The format is functional, cell-based. To be noted: MCF7, 48 h.
For test [11], the system named is SW480. The experiment in a line: Antiproliferative activity against human SW480 cells assessed as inhibition of cell growth incubated for 48 hrs by MTS assay. In kind it is functional, cell-based. To be noted: SW480, 48 h.
The subject of test [12] is MCF7. The experiment in a line: Antiproliferative activity against human MCF7 cells assessed as inhibition of cell growth incubated for 24 hrs by MTT assay. The format is functional, cell-based. To be noted: MCF7, 24 h.
Test [13] deals with KB. The experiment in a line: Antiproliferative activity against human KB cells assessed as inhibition of cell growth incubated for 72 hrs by neutral red based colorimetric assay. In kind it is functional.
Test [14] is described as follows: Antiproliferative activity against mouse […] cells assessed as inhibition of cell growth. In kind it is functional, cell-based.
Test [15] concerns HepG2. The experiment in a line: Antiproliferative activity against human HepG2 cells assessed as inhibition of cell growth by MTT assay. The format is functional, cell-based.
In test [16] the test system is MCF7. The experiment in a line: Antiproliferative activity against human MCF7 cells assessed as inhibition of cell growth by MTT assay. The format is functional, cell-based.
Test [17] relates to LoVo. The experiment in a line: Antiproliferative activity against human LoVo cells assessed as inhibition of cell growth by MTT assay. The format is functional, cell-based.
Test [18] relates to HT-29. The experiment in a line: Antiproliferative activity against human HT-29 cells assessed as inhibition of cell growth incubated for 48 hrs by MTS assay. In kind it is functional, cell-based. The settings on record: HT-29, 48 h.
In test [19] the test system is HeLa. The experiment in a line: Antiproliferative activity against human HeLa cells assessed as inhibition of cell growth incubated for 48 hrs by MTT assay. In kind it is functional, cell-based.
The test system of test [20] is MCF7. The experiment in a line: Antiproliferative activity against human MCF7 cells assessed as inhibition of cell growth incubated for 48 hrs by MTT assay. The settings on record: MCF7, 48 h. In kind it is functional, cell-based.
For test [21], the system named is SW480. The experiment in a line: Antiproliferative activity against human SW480 cells assessed as inhibition of cell growth incubated for 48 hrs by MTT assay. To be noted: SW480, 48 h. In kind it is functional, cell-based.
The subject of test [22] is KB. The experiment in a line: Antiproliferative activity against drug-sensitive human KB cells assessed as inhibition of cell growth. In kind it is functional, cell-based.
Test [23] can be described thus: Antiproliferative activity against vincristine-resistant human KB cells assessed as inhibition of cell growth. The format is functional, cell-based.

Usually IC50 stands for the midpoint of a concentration-inhibition curve. With `CC[C@@H]1CN(C)[C@H]2Cc3c([nH]c4ccccc34)[C@H](c3cc4c5c([nH]c4cc3OC)[C@@]3(C(=O)OC)C[C@H]4C[C@@H](CC)[C@@H]3N(CC5)[C@H]4CC(C)=O)C[C@H]1[C@@H]2C(=O)OC`, the IC50 in test [1] and in test [2] was under 10 µM each time. Moreover, in [3], the Activity stood at 70%.
Consider `O=C(C1=NC(c2c[nH]c3cc(Br)ccc23)CN1)c1c[nH]c2ccccc12` (stereo not drawn) [SPONGOTINE A], for which the IC50 in [4] amounted to 1.1 µg/mL (≈ 2.7 µM); in test [5], 1.1 µg/mL (≈ 2.7 µM); in test [6], 10.7 µg/mL (≈ 26.3 µM).
`CC[C@]12C=C([C@H]3C=C[C@@]4(CC)CC(C(=O)OC)=C5Nc6ccccc6[C@@]56CCN3[C@@H]46)CN3CC[C@]4(C(=C(C(=O)OC)C1)Nc1ccccc14)[C@@H]32`: the IC50 in test [7], in test [8], in [9], in test [10] and in test [11] was 13.1 µM throughout.
`O=C1C[C@@H]2c3cc(O)c(O)cc3[C@@]3(Nc4ccccc4C3=O)[C@@]23C(=O)c2ccccc2N13`: the IC50 in test [12] stood at 32.2 µM.
Consider `CC[C@]1(O)C[C@@H]2CN(CCc3c([nH]c4ccccc34)[C@@](C(=O)OC)(c3cc4c(cc3OC)N(C)[C@H]3[C@@](O)(C(=O)OC)[C@H](OC(C)=O)[C@]5(CC)C=CCN6CC[C@]43[C@@H]65)C2)C1` [VINBLASTINE], for which the IC50 in test [13] was 0.008 µM.
For the molecule `Brc1ccc2c(-c3c[nH]c(-c4c[nH]c5ccccc45)n3)c[nH]c2c1` [NORTOPSENTIN C], the IC50 in test [14] was determined as 1.7 µg/mL (≈ 4.51 µM).
`C/C=C1/CN2CC[C@@]34c5cc(OC)c(-c6cc7c8c(n(C)c7cc6OC)[C@@H]6[C@H]7O[C@@H](C)[C@H](CN6C(=O)C(C)C)[C@H]7[C@H]8C(=O)OC)c(C)c5N(C)[C@@]23CC[C@H]1[C@H]4C(=O)OC`: the IC50 in test [13] is 6 µM.
Turning to `CC[C@]12C=C[C@H](C3=C[C@@]4(CC)CC(C(=O)OC)=C5Nc6ccccc6[C@@]56CCN([C@@H]3CC(C)=O)[C@@H]46)N3CC[C@]4(C(=C(C(=O)OC)C1)Nc1ccccc14)[C@@H]32`, the IC50 in [7], in test [8], in test [9], in test [10] and in [11] was 13.1 µM in each case.
As for `CC[C@]1(O)C[C@H]2C[C@](C(=O)OC)(c3cc4c(cc3OC)N(C)[C@@H]3[C@]45CCN4CC=C[C@@](CC)(C[C@]3(O)C(=O)OC)[C@H]45)c3[nH]c4ccccc4c3CC[N+]([O-])(C2)C1`, the IC50 in test [15] is 28.1 µM; in test [16] it was 42.7 µM; in test [17] it was over 100 µM.
Regarding `CC[C@]12C=C[C@H]([C@@]34CN5CC[C@]67C(=C(C(=O)OC)C[C@](CC)([C@@H]3O4)[C@H]56)Nc3cc(OC)ccc37)N3CC[C@]4(C(=C(C(=O)OC)C1)Nc1cc(OC)ccc14)[C@@H]32`, the IC50 in [7], in test [8], in test [9], in test [10] and in test [11] was 13.1 µM each time.
As to `C/C=C1/CN2CC[C@@]34c5cc(OC)c(-c6cc7c8c(n(C)c7cc6OC)[C@@H]6[C@H]7O[C@@H](C)[C@H](CN6C(=O)C(C)C)[C@H]7[C@H]8C(=O)OC)c(C)c5N[C@@]23CC[C@H]1[C@H]4C(=O)OC`, the half-inhibitory concentration (IC50) in [13] was 5 µM.
`CC[C@@]12C=C(C(=O)OC)C3Nc4cc(OC)c(O)cc4[C@@]34CCN([C@@H]3c5cc6c(cc5O[C@@H]3[C@H]1O)NC1=C(C(=O)OC)C[C@]3(CC)[C@@H]5O[C@@H]5CN5CC[C@@]16[C@@H]53)[C@@H]24` (stereo partly drawn): the IC50 in test [7] is over 40 µM; in [18], over 40 µM; in test [8] it was over 40 µM; in test [19] it was 1.42 µM; in [20], 1.42 µM; in [21], 1.42 µM.
Regarding `C/C=C1/CN(C)[C@H]2Cc3c([nH]c4ccccc34)[C@H](c3c(OC)ccc4c5c6n(c34)C[C@@H]3C[C@@H](CC)[C@@H](NCC5)[C@@]6(C(=O)OC)C3)C[C@H]1[C@]2(CO)C(=O)OC`, the 50% inhibitory concentration (IC50) in test [15] came out at 38.1 µM.
Turning to `CC[C@H]1[C@@H]2CCN3CC[C@@]4(C5=C2C[C@@]2(CN5c5ccccc54)C4=Nc5ccccc5[C@]45CCN4CC[C@H]2[C@H](CC)[C@@H]45)[C@@H]13`, the IC50 in [22] and in test [23] was 0.57 µM each time.

(Values after ChEMBL document CHEMBL5331060, “Bisindole natural products: A vital source for the development of new anticancer drugs” (Eur J Med Chem, 2022).)
